Measured values as given in US20090328239A1, “BLOOD VESSEL IMAGING AND USES THEREFOR” (Bio Tree Systems, Inc., priority 2006, published 2009).

How the values were obtained:
[1] = tested on: human non-small cell lung tumor cell line (A549) xenotopic tumor; test: Tumor volume in xenotopic tumor model (caliper measurement); format: in vivo, mice (SCID); conditions: 0.5 mg/kg i.p. twice a week; end-point 1.5 weeks after initial treatment; vs saline/PBS control
Description: A tumor model can be generated by inoculating human non-small cell lung tumor cell line (A549 from ATCC, Inc.) subcutaneously in immunodeficient mice (SCID). SCID male mice (6-8 weeks old from Charles River Inc.) are inoculated subcutaneously in the lower back with a suspension of 1×10^6 human lung tumor cells (A549) in 0.2 ml of PBS. All mice are fed normal chow diet throughout the duration of the experiment. All mice weights are measured throughout the experiment. Tumor size is measured with calipers twice-a-week and tumor volume is calculated using the formula Length^2×Width×0.52. All mice are randomized into two treatment groups (approximately 10 mice per group) when the median tumor volume reaches approximately 500 mm^3. The treatment groups can be treated according to the following schedule using intraperitoneal (i.p.) administration of either a control composition or an anti-angiogenic compound. […]
(§1) Xenotopic mouse models obtained as described in Example 2 were treated with either a control solution of saline/PBS or an anti-angiogenic preparation of Avastin® at 0.5 mg/kg/i.p. as described above. At the end-point, vascular casts were prepared as described in Example 3 above and analyzed for two treated mice (both treated with Avastin® at 0.5 mg/kg/i.p.) and one control mouse. […]

[2] = tested on: human non-small cell lung tumor cell line (A549) xenotopic tumor; test: Vascular cast micro-CT analysis of blood vessel diameter distribution in xenotopic tumor model; format: in vivo, mice (SCID); conditions: 0.5 mg/kg i.p., vascular casts
Description: A tumor model can be generated by inoculating human non-small cell lung tumor cell line (A549 from ATCC, Inc.) subcutaneously in immunodeficient mice (SCID). SCID male mice (6-8 weeks old from Charles River Inc.) are inoculated subcutaneously in the lower back with a suspension of 1×10^6 human lung tumor cells (A549) in 0.2 ml of PBS. All mice are fed normal chow diet throughout the duration of the experiment. All mice weights are measured throughout the experiment. Tumor size is measured with calipers twice-a-week and tumor volume is calculated using the formula Length^2×Width×0.52. All mice are randomized into two treatment groups (approximately 10 mice per group) when the median tumor volume reaches approximately 500 mm^3. The treatment groups can be treated according to the following schedule using intraperitoneal (i.p.) administration of either a control composition or an anti-angiogenic compound. For example, different levels of an anti-angiogenic compound can be used and the results compared to a control group that is not treated with an anti-angiogenic compound (e.g., Avastin® available from Genentech, South San Francisco, Calif.). For example:
At the end-point, all mice are anesthetized and systemically perfused with a casting agent.
Perfusion with a casting agent, Mercox (available from Ladd Research, Williston, Vt.) can be performed as follows. An initial anticoagulation step for each animal is performed using an i.v. injection of heparin (10,000 U/ml, 0.3 cc/mouse). After 30 minutes, the animals are anesthetized. Each animal's heart is cannulated and the animal perfused with warm physiological saline at physiological pressure (with an open vein draining the organ or with an open vena cava). Perfusion is continued until the organ or animal is clear of blood. Mercox monomer is filtered through a 0.5 μm filter and a casting resin is prepared by mixing 8 ml Mercox, 2 ml methylmethacrylate, and 0.3 ml catalyst. The resin is infused through the same cannula until the onset of polymerization (the resin changes color to brown and emits heat, ˜10 min). The organ or animal is carefully immersed in a 60° C. water bath for 2 hours (or overnight in a sealed container). […] The resulting cast can be analyzed to identify one or more structural characteristics of interest.
as §1

Question: For “Avastin®: known monoclonal antibody against vascular endothelial growth factor (VEGF), angiogenesis inhibitor available from Genentech”, which “Mean tumor volumes, treated vs control group at the end of the experiment” value [1] is on record?
Answer: did not differ significantly

Question: And the “Vessel population ratio between large (approximately 147-161 μm) and middle (approximately 33-77 μm) size vessels (FIG. 3)” value ([2]; treated vs control animals)?
Answer: decreased

Question: What about the “Vessel population ratio between small (approximately 21-35 μm) and middle (approximately 35-49 μm) size vessels (FIG. 2)” value ([2]; treated vs control animals) of the same substance?
Answer: decreased

Question: And the “Percentage of middle diameter sized vessels in treated tumors vs untreated tumors (FIG. 1)” value ([2]; two treated mice vs one control mouse)?
Answer: higher percentage

Question: What about the “Reduction in small diameter sized vessels in treated tumors vs untreated tumors (FIG. 1)” value ([2]; two treated mice vs one control mouse, bins 13.8 μm wide) of the same substance?
Answer: 20%
